We go through three compounds from patent US20220370636A1, “NICOTINAMIDE ADENINE DINUCLEOTIDE ACTIVATOR AND USE THEREOF” (University of South Florida, priority 2021, published 2022).

Test [1] addresses recombinant Nampt (Homo sapiens, UniProt P43490). In words: Recombinant Nampt enzymatic activity assay. As to conditions: enzyme assay with recombinant Nampt.
For test [2], the system named is PI3K. In words: Ex vivo ischemia reperfusion with PI3K inhibitor LY294002, pAKT Western blot. Also on record: species or system mice. The following applies: WT hearts; LY294002 15 μM prior to global ischemia. (A western blot detects proteins with antibodies after separation by electrophoresis.)
Test [3] has as its system C57Bl/6J mice on a high-fat diet. As to conditions: cited from earlier work.

recombinant Nampt, sequence (P43490 whole entry, the tested form may be a part): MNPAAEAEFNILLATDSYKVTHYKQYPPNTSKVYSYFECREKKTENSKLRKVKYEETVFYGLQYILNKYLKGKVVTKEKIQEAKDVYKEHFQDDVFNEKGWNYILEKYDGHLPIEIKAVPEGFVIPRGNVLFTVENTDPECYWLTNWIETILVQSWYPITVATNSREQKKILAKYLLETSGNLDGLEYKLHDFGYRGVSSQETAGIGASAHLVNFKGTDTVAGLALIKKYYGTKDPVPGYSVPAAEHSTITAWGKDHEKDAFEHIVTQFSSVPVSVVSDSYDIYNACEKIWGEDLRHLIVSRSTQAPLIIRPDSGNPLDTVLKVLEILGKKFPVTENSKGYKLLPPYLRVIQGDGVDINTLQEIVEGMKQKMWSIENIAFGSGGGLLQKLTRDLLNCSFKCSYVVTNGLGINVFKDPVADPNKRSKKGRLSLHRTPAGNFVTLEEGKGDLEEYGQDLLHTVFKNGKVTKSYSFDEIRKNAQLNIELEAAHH

On to `O=C(/C=C/c1cccnc1)NCCCCC1CCN(C(=O)c2ccccc2)CC1` [FK866], for which the Nampt activity entry in test [1] is on record as “significantly decreased”.

In the case of `Cl.O=c1cc(N2CCOCC2)oc2c(-c3ccccc3)cccc12` [LY294002, 2-(4-Morpholinyl)-8-phenyl-1(4H)-benzopyran−4-one hydrochloride], the “P7C3 based pAkt expression” value in test [2] is “attenuated”.

Regarding `COc1cccc(NCC(F)Cn2c3ccc(Br)cc3c3cc(Br)ccc32)c1` (stereo not drawn) [P7C3 A20], in test [3], the fatty liver syndrome result is reported as “rescued”.
